In publication PMC4725968 (Scientific Reports, 2016):
Positions count from the first letter of the chain named. Numbers in names are those of the source.

Assays:
DERAEC = molecular target: T1, DERAEC (Escherichia coli, UniProt P0A6L0); experiment: steady-state kinetics, coupled GDH/TPI assay, NADH at […] nm; type: biochemical; details: retro-aldol cleavage; 25 °C
T1 construct: gene deoC; deoC isolated previously; E. coli BL21(DE3); NiNTA purification; dimer
T1 sequence (P0A6L0 1-259): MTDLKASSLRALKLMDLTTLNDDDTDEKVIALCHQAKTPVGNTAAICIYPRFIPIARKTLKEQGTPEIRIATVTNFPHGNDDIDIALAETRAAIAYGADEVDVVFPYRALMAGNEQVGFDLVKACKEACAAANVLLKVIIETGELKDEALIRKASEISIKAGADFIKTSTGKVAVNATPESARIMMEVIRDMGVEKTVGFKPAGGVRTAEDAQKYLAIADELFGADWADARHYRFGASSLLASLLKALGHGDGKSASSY

DERASH = molecular target: T2, DERASH (Shewanella halifaxensis, UniProt B0TQ91); experiment: as above; type: biochemical; details: retro-aldol cleavage; 25 °C
T2 construct: gene deoC; deoC isolated from genomic DNA; E. coli BL21(DE3); NiNTA purification; dimer
T2 sequence (B0TQ91 whole entry): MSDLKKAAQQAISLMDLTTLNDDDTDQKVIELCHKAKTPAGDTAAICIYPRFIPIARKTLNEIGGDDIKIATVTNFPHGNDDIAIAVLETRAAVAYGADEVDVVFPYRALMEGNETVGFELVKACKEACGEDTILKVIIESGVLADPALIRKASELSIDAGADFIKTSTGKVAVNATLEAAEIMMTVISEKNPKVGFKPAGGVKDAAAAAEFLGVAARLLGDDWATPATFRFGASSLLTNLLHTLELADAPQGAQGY

DERAPA = molecular target: T3, DERAPA (Pyrobaculum aerophilum, UniProt Q8ZXK7); experiment: as above; type: biochemical; details: retro-aldol cleavage; 25 °C
T3 construct: gene deoC; synthetic deoC gene in pET21a, C-terminal 6xHis tag; E. coli BL21(DE3); NiNTA; dimer
T3 sequence (Q8ZXK7 1-226): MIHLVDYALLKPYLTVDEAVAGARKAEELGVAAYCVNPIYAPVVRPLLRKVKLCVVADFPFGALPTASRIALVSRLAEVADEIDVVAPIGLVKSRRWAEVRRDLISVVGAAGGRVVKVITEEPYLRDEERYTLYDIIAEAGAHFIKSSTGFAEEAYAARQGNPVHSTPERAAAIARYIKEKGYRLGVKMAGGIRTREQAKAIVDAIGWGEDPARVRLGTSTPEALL

DERATM = molecular target: T4, DERATM (Thermotoga maritima, UniProt Q9X1P5); experiment: as above; type: biochemical; details: retro-aldol cleavage; 25 °C
T4 construct: gene deoC; synthetic deoC gene in pET21a, C-terminal 6xHis tag; E. coli BL21(DE3); NiNTA; dimer
T4 sequence (Q9X1P5 1-248): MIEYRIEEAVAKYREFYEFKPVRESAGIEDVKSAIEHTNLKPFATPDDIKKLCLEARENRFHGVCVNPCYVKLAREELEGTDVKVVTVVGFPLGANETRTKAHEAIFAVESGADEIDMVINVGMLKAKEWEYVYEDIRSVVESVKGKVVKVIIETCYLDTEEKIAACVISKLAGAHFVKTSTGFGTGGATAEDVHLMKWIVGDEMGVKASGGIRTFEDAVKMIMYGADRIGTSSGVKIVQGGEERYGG

DERACP = molecular target: T5, DERACP (Colwellia psychrerythraea, UniProt Q483R4); experiment: as above; type: biochemical; details: retro-aldol cleavage; 25 °C
T5 construct: gene deoC; synthetic deoC gene in pET21a, C-terminal 6xHis tag; E. coli BL21(DE3); NiNTA; dimer
T5 sequence (Q483R4 1-257): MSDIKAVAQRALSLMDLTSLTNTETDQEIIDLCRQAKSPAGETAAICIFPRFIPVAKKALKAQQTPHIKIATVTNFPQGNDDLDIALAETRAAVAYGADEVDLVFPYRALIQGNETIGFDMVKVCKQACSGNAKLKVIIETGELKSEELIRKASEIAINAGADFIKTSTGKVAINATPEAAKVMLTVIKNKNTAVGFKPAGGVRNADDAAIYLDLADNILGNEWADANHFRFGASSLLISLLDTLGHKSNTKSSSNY

[1] = molecular target: the molecule itself; experiment: cross-linking; engineered intermolecular disulfide (A95C) across the dimer interface; oxidised against reduced mutant on SDS-PAGE under non-reducing conditions
[2] = molecular target: the molecule itself; experiment: crystal structure; sitting-drop vapour diffusion at 20 °C; data at 100 K; DERACP tetragonal (P4(1)2(1)2, two chains per asymmetric unit) and hexagonal (P6(1)22, four chains) forms, DERASH (C2, four chains)
[3] = molecular target: the molecule itself; experiment: SEC; Superdex 200 10/300 GL, 100 mM KPi, 150 mM NaCl (pH 7); 1-5 mg protein loaded; calibrated with five protein standards between 12.5 and 200 kDa; hydrodynamic size

## O=P(O)(O)OC[C@H]1OC(O)C[C@@H]1O (stereo partly drawn) [2-deoxy-D-ribose-5-phosphate]
DERAEC
  KM: Both KM and kcat values decrease with increasing optimal growth temperature of the organism
DERASH
  KM: Both KM and kcat values decrease with increasing optimal growth temperature of the organism
DERAPA
  KM: Both KM and kcat values decrease with increasing optimal growth temperature of the organism
DERATM
  KM: Both KM and kcat values decrease with increasing optimal growth temperature of the organism
DERACP
  KM: Both KM and kcat values decrease with increasing optimal growth temperature of the organism

B1: A95C mutant of DERA from Escherichia coli (enzyme)
chain: T1 sequence (P0A6L0 1-259) with A95C
modifications: intermolecular disulfide bridge C95-C95 in the oxidised form
notes: DERA (deoC gene) of Escherichia coli with the mutation A95C; also called DERAEC A95C; source: E. coli BL21(DE3), purified (Ni-NTA)
[1]
  binding result: binds

B2: 2-deoxy-D-ribose-5-phosphate aldolase (DERA) from Colwellia psychrerythraea, wild type (enzyme, UniProt Q483R4 1-257, looked up)
chain: T5 sequence (Q483R4 1-257)
notes: 2-deoxy-D-ribose-5-phosphate aldolase (DERA, deoC gene) of Colwellia psychrerythraea; gene synthesised by GenScript, in pET21a; also called DERACP; psychrophilic DERA; source: E. coli BL21(DE3), purified (Ni-NTA, SEC)
[2]
  stoichiometry N: 2

B3: 2-deoxy-D-ribose-5-phosphate aldolase (DERA) from Thermotoga maritima, wild type (enzyme)
chain: T4 sequence (Q9X1P5 1-248)
notes: 2-deoxy-D-ribose-5-phosphate aldolase (DERA, deoC gene) of Thermotoga maritima; gene synthesised by GenScript, in pET21a; also called DERATM; hyperthermophilic DERA; source: E. coli BL21(DE3), purified (Ni-NTA)
[3]
  stoichiometry N: 2

B4: 2-deoxy-D-ribose-5-phosphate aldolase (DERA) from Pyrobaculum aerophilum, wild type (enzyme)
chain: T3 sequence (Q8ZXK7 1-226)
notes: 2-deoxy-D-ribose-5-phosphate aldolase (DERA, deoC gene) of Pyrobaculum aerophilum; gene synthesised by GenScript, in pET21a; also called DERAPA; hyperthermophilic DERA; source: E. coli BL21(DE3), purified (Ni-NTA)
[3]
  stoichiometry N: 2
